Laboratory results: ChEMBL document CHEMBL5291721, “A preclinical secondary pharmacology resource illuminates target-adverse drug reaction associations of marketed drugs” (Nat Commun, 2023)

Experiments:
Cannabinoid receptor 1 = Cannabinoid receptor 1 (Homo sapiens, UniProt P21554)
Histamine H2 receptor = Histamine H2 receptor (Homo sapiens, UniProt P25021); assay type: functional, cell-based
[1] = target: T1, 5-hydroxytryptamine receptor 2B (Homo sapiens, UniProt P41595); assay type: functional, cell-based
T1 sequence (P41595 whole entry): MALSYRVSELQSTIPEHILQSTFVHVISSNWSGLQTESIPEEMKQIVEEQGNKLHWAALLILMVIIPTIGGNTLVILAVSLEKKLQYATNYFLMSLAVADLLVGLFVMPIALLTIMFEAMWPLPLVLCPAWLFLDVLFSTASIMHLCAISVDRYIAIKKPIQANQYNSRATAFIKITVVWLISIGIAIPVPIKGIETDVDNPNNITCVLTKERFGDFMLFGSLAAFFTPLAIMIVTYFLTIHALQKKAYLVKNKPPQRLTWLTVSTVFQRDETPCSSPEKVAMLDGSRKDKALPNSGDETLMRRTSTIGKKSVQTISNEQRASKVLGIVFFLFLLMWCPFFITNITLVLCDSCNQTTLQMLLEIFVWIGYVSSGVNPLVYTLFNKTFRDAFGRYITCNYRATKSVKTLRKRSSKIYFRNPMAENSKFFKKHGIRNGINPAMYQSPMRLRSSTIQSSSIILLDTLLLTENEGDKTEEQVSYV

Progesterone receptor = target: T2, Progesterone receptor (Homo sapiens, UniProt P06401); assay type: functional
T2 sequence (P06401 whole entry): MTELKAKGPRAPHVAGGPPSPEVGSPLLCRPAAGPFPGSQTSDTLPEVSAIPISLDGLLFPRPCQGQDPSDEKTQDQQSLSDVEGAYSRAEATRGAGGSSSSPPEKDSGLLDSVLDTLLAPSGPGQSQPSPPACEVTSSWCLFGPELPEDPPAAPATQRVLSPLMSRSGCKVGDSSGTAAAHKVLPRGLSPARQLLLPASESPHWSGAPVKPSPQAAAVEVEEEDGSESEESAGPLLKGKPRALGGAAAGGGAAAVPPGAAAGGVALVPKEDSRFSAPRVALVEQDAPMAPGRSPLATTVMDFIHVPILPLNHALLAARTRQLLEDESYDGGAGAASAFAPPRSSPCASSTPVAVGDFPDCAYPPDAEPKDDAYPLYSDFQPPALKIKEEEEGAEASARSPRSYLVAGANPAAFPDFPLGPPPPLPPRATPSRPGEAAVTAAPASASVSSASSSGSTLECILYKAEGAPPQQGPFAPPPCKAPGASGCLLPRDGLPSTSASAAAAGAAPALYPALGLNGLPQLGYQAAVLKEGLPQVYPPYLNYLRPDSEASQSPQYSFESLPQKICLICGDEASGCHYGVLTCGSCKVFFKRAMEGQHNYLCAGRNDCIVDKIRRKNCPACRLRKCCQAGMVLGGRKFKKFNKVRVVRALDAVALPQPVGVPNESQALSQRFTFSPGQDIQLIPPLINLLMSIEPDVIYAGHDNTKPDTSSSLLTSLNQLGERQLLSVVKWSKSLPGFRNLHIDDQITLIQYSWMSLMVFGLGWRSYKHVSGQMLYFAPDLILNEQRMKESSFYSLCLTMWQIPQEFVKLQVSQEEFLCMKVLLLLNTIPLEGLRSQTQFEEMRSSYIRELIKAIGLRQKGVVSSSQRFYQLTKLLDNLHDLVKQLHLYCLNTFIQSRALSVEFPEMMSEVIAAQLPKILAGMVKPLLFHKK

Thromboxane A2 receptor = target: T3, Thromboxane A2 receptor (Homo sapiens, UniProt P21731)
T3 sequence (P21731 whole entry): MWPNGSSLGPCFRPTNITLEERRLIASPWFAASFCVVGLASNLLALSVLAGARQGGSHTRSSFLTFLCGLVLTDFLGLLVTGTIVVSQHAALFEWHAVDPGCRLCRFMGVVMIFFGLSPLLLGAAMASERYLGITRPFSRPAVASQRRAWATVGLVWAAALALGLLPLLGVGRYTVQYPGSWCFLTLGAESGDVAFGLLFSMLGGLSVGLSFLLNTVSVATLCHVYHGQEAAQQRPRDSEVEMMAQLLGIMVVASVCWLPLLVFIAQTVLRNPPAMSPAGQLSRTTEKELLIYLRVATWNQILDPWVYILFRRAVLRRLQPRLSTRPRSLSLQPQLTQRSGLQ

[2] = target: T4, Muscarinic acetylcholine receptor M1 (Homo sapiens, UniProt P11229); assay type: functional, cell-based
T4 sequence (P11229 whole entry): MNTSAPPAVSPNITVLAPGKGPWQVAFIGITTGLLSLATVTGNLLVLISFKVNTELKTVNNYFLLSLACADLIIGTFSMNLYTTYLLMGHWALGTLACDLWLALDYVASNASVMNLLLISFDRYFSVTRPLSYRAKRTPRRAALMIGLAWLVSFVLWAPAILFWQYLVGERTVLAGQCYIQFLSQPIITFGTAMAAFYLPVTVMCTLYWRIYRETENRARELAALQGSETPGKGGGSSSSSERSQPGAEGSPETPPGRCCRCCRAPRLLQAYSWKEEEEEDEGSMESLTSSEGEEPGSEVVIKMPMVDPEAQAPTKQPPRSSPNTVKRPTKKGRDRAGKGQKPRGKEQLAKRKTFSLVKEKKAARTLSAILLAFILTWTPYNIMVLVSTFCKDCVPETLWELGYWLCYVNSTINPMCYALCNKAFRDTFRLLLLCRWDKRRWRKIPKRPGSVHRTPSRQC

D(3) dopamine receptor = D(3) dopamine receptor (Homo sapiens, UniProt P35462)
Chain of D(3) dopamine receptor (P35462 whole entry): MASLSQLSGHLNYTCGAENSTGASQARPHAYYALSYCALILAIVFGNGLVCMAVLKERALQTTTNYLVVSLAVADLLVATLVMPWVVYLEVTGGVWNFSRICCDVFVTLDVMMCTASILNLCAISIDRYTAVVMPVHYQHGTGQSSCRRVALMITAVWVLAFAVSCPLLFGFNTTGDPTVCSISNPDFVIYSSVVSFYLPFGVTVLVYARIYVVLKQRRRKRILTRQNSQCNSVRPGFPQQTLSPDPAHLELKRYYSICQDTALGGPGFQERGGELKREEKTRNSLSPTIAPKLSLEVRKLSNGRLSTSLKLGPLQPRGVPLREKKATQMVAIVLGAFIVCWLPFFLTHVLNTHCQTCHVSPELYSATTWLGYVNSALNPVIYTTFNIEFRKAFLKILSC

Histamine H3 receptor = Histamine H3 receptor (Homo sapiens, UniProt Q9Y5N1)
Chain of Histamine H3 receptor (Q9Y5N1 whole entry): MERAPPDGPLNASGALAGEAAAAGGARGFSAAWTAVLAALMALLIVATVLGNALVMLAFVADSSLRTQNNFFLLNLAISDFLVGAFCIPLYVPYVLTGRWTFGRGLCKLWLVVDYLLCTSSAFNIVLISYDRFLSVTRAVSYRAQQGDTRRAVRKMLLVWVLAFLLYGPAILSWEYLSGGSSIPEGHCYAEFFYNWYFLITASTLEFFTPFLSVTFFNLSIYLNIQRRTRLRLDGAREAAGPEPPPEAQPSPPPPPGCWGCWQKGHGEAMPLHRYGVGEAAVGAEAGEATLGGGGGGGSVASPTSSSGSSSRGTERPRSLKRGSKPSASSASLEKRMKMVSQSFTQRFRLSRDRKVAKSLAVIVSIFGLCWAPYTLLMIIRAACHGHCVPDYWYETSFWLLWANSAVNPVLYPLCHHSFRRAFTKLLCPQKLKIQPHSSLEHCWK

[3] = target: T5, 5-hydroxytryptamine receptor 1A (Homo sapiens, UniProt P08908)
T5 sequence (P08908 whole entry): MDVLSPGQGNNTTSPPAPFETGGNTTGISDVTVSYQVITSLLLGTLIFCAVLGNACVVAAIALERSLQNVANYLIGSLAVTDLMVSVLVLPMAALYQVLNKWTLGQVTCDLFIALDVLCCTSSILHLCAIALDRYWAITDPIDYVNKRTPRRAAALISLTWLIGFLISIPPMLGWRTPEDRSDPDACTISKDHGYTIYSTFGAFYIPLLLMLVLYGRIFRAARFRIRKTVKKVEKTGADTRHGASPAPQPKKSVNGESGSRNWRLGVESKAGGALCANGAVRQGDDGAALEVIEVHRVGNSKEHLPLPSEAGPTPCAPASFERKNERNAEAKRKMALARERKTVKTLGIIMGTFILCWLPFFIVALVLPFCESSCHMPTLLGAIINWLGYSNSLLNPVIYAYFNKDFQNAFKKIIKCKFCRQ

[4] = target: T1, 5-hydroxytryptamine receptor 2B; assay type: functional, cell-based; remark: listed apart in the source
[5] = target: Prostaglandin G/H synthase 1 (Homo sapiens, UniProt P23219); assay type: functional
Chain of Prostaglandin G/H synthase 1 (P23219 whole entry): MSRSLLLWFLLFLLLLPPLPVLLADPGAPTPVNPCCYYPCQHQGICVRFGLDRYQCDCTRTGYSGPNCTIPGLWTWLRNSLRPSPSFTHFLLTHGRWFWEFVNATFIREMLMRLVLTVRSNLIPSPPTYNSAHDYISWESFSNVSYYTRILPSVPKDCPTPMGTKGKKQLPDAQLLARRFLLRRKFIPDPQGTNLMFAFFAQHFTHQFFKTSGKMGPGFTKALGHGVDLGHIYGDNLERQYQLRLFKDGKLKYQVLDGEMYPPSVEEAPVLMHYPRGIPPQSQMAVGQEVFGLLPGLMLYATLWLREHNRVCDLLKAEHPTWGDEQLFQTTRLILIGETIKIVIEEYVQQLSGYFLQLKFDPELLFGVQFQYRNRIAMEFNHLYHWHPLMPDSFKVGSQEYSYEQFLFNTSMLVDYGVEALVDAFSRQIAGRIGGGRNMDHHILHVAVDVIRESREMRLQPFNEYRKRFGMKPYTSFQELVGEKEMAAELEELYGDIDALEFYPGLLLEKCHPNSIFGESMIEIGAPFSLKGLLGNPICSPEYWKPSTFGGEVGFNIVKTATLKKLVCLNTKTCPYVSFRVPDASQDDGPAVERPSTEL

[6] = target: Sodium-dependent dopamine transporter (Homo sapiens, UniProt Q01959)
Chain of Sodium-dependent dopamine transporter (Q01959 whole entry): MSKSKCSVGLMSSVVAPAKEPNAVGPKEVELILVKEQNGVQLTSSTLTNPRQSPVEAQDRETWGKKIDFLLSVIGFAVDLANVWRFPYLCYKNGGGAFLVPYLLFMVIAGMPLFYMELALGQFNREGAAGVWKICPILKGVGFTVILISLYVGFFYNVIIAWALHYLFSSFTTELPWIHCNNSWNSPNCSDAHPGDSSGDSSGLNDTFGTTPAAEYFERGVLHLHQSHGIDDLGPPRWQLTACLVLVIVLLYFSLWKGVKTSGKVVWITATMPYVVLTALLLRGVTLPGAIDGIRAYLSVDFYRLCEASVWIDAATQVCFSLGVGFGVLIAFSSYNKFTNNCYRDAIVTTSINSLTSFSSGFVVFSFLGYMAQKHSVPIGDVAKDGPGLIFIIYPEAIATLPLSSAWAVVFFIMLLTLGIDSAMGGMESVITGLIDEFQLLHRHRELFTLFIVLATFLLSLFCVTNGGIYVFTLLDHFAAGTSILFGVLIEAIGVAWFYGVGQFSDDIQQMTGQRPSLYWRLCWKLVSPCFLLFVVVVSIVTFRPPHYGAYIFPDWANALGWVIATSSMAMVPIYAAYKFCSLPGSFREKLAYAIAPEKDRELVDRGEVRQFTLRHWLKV

Melanocortin receptor 4 = Melanocortin receptor 4 (Homo sapiens, UniProt P32245)
Chain of Melanocortin receptor 4 (P32245 whole entry): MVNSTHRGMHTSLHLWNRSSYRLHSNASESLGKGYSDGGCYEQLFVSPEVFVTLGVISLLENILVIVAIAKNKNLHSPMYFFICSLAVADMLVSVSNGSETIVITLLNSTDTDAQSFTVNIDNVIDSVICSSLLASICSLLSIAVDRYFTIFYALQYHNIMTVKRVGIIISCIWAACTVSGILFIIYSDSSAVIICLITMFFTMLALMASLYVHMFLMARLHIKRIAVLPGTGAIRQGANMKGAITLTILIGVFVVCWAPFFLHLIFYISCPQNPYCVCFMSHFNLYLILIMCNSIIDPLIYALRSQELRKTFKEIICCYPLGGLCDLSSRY
Further: assay procedure not described here.

Chain of Histamine H2 receptor (P25021 whole entry): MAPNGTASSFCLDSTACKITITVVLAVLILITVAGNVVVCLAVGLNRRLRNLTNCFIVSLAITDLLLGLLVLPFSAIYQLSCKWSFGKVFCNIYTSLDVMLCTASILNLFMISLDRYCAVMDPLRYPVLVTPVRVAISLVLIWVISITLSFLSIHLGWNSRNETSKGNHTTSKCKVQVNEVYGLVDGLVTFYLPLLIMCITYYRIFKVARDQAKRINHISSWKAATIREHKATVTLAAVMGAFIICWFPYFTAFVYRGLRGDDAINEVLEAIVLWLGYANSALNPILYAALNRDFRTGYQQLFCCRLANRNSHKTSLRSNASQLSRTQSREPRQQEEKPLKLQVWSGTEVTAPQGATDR
Chain of Cannabinoid receptor 1 (P21554 whole entry): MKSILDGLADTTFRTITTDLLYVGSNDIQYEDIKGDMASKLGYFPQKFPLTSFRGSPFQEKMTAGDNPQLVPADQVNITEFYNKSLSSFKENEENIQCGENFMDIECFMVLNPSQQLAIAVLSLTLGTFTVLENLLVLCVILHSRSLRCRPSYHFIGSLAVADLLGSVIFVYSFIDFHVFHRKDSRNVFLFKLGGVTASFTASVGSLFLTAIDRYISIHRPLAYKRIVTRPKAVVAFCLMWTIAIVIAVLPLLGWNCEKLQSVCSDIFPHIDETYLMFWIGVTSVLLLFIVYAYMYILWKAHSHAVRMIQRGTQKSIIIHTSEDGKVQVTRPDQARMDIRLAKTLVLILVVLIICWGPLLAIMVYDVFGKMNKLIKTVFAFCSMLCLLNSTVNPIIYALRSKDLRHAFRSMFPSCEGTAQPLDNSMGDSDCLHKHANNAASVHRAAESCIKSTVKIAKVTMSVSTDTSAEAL

SMILES	AC50 (Cannabinoid receptor 1)	AC50 (Histamine H2 receptor)	AC50 [1]	AC50 (Progesterone receptor)	AC50 (Thromboxane A2 receptor)	AC50 [2]	AC50 (D(3) dopamine receptor)	AC50 (Histamine H3 receptor)	AC50 [3]	AC50 [4]	AC50 [5]	AC50 [6]	AC50 (Melanocortin receptor 4)
COc1ccccc1OCC(O)CN1CCN(CC(=O)Nc2c(C)cccc2C)CC1 (stereo not given) [RANOLAZINE]	> 30 µM	> 30 µM	11 µM	> 30 µM	> 30 µM	–	–	–	–	–	–	–	–
COCCCN1CCC(NC(=O)c2cc(Cl)c(N)c3c2OCC3)CC1 [PRUCALOPRIDE]	–	–	> 30 µM	> 30 µM	–	> 30 µM	> 30 µM	> 30 µM	6.1 µM	> 30 µM	> 30 µM	> 30 µM	–
CC[C@H]1[C@@H](O)[C@@H]2[C@H](CC[C@]3(C)[C@@H]([C@H](C)CCC(=O)O)CC[C@@H]23)[C@@]2(C)CC[C@@H](O)C[C@@H]12 [OBETICHOLIC ACID]	–	> 30 µM	–	> 30 µM	> 30 µM	> 30 µM	> 30 µM	> 30 µM	> 30 µM	> 30 µM	> 30 µM	> 30 µM	–
CC1=C(C(=O)O)N2C(=O)[C@@H](NC(=O)[C@H](N)c3ccccc3)[C@H]2SC1 [CEPHALEXIN ANHYDROUS]	> 10 µM	> 30 µM	–	–	> 30 µM	–	–	–	–	–	–	–	> 30 µM
C=CCc1ccccc1OCC(O)CNC(C)C (stereo not given) [ALPRENOLOL]	–	> 30 µM	16 µM	> 30 µM	> 30 µM	> 0.3 µM	> 0.3 µM	> 0.3 µM	0.0146 µM	> 0.3 µM	> 0.3 µM	> 0.3 µM	–
c1ccc([C@H]2CN3CCSC3=N2)cc1 [LEVAMISOLE]	> 30 µM	> 30 µM	> 30 µM	> 30 µM	> 30 µM	–	–	–	–	–	–	–	–
N[C@H](C(=O)O)[C@H](O)c1ccc(O)c(O)c1 [DROXIDOPA]	–	–	–	–	–	> 30 µM	> 30 µM	> 30 µM	> 30 µM	> 30 µM	17.8 µM	> 30 µM	–
CCOC(=O)[C@H](CCc1ccccc1)N[C@@H](C)C(=O)N1[C@H](C(=O)O)C[C@H]2CCCC[C@@H]21 [TRANDOLAPRIL]	–	–	–	–	–	> 30 µM	> 30 µM	> 30 µM	> 30 µM	> 30 µM	> 30 µM	> 30 µM	–
C=C[C@H]1C[N@@]2CC[C@H]1C[C@H]2[C@H](O)c1ccnc2ccc(OC)cc12 [QUININE]	–	–	–	–	–	> 30 µM	> 30 µM	> 30 µM	> 30 µM	> 30 µM	> 30 µM	> 30 µM	–
O=C(Cc1ccc(-c2ccccc2)cc1)Nc1ccccn1 [DIFENPIRAMIDE]	–	> 30 µM	> 30 µM	–	–	> 30 µM	> 30 µM	> 30 µM	> 30 µM	> 30 µM	> 30 µM	0.58 µM	–
CC(C)Nc1ncccn1 [ISAXONINE]	–	–	–	–	–	> 30 µM	> 30 µM	> 30 µM	> 30 µM	> 30 µM	> 30 µM	> 30 µM	–
OCCN1C[C@H](O)[C@@H](O)[C@H](O)[C@H]1CO [MIGLITOL]	–	–	–	–	–	> 30 µM	> 30 µM	> 30 µM	> 30 µM	> 30 µM	> 30 µM	> 30 µM	–
Oc1c(Cl)cc(Cl)c2cccnc12 [CHLOROXINE]	–	–	–	–	–	> 30 µM	> 30 µM	> 30 µM	17.2 µM	> 30 µM	> 30 µM	> 30 µM	–
O=C(OCC(O)CO)c1ccccc1Nc1ccnc2cc(Cl)ccc12 (stereo not given) [GLAFENINE]	–	–	> 30 µM	> 30 µM	–	> 30 µM	> 30 µM	> 30 µM	> 30 µM	> 30 µM	4.63 µM	> 30 µM	–
Cc1cc(C#N)cc(C)c1Oc1nc(Nc2ccc(C#N)cc2)nc(N)c1Br [ETRAVIRINE]	–	–	–	–	–	> 10 µM	> 30 µM	> 30 µM	> 30 µM	> 30 µM	14.4 µM	> 10 µM	–
CCCCN1C[C@H](O)[C@@H](O)[C@H](O)[C@H]1CO	> 30 µM	> 30 µM	> 30 µM	> 30 µM	> 30 µM	–	–	–	–	–	–	–	–
CN(C)CCn1nnnc1SCC1=C(C(=O)O)N2C(=O)[C@@H](NC(=O)Cc3csc(N)n3)[C@H]2SC1 [CEFOTIAM]	–	–	–	–	–	> 30 µM	> 30 µM	> 30 µM	> 30 µM	> 30 µM	> 30 µM	> 30 µM	–
CN(C)[C@@H](c1cccc(O)c1)[C@H]1CCCC[C@H]1O [CIRAMADOL]	–	–	–	–	–	> 30 µM	> 30 µM	> 30 µM	> 30 µM	> 30 µM	> 10 µM	29.6 µM	–
CN(C)CCN1C(=O)c2ccccc2N(C)c2ccccc21 [DIBENZEPIN]	–	–	–	–	–	> 30 µM	16.3 µM	> 30 µM	0.306 µM	> 30 µM	> 30 µM	> 30 µM	–
N[C@@H](C(=O)N[C@@H]1C(=O)N2C(C(=O)O)=C(Cl)CC[C@H]12)c1ccccc1 [LORACARBEF ANHYDROUS]	–	–	–	–	–	> 30 µM	> 30 µM	> 30 µM	> 30 µM	> 30 µM	> 30 µM	> 30 µM	–
CC(C)(C)NC[C@H](O)COc1ccccc1C1CCCC1 [PENBUTOLOL]	–	–	–	–	–	> 30 µM	7.74 µM	> 30 µM	0.0036 µM	> 30 µM	26.4 µM	> 30 µM	–
CC[N+]1(C)[C@@H]2CC(OC(=O)[C@H](CO)c3ccccc3)C[C@H]1[C@@H]1O[C@@H]12 (stereo not given in full) [OXITROPIUM]	–	–	–	–	–	> 30 µM	> 30 µM	> 30 µM	> 30 µM	> 30 µM	> 30 µM	> 30 µM	–
O=C(O)c1cc(O)ccc1O [GENTISIC ACID]	–	–	–	–	–	> 30 µM	> 30 µM	> 30 µM	> 30 µM	> 30 µM	> 30 µM	> 30 µM	–
